Test results published in patent publication US7094799B2, “Polymorphs of bicifadine hydrochloride” (DOV Pharmaceutical, Inc., priority 2002, dated 2006).
Where a name gives a salt, the structure may show the parent alone.

Columns and labels:
Assay type in all cases: physicochemical
[1] = Stability of the polymorphic form on grinding (Retsch Mixer Mill, XRPD analysis); details: Retsch Mixer Mill MM 200, stainless steel ball, 30/s, 5-minute intervals, total of 20 minutes; hydrochloride
Description: The X-ray powder diffraction (XRPD) analyses of polymorphic forms A and B of racemic bicifadine hydrochloride were performed with a Shimadzu XRD-6000 X-ray powder diffractometer using Cu Kα radiation. The bicifadine was loaded onto the machine as a crystalline powder. The instrument was equipped with a fine focus X-ray tube. The tube voltage and amperage were set to 40 kV and 40 mA, respectively. The divergence and scattering slits were set at 1° and the receiving slit was set at 0.15 mm. Diffracted radiation was detected by a NaI scintillation detector. A theta-two theta continuous scan at 3°/min (0.4 sec/0.02° step) from 2.5 to 40°2θ was used. A silicon standard was analyzed to check the instrument alignment. Data were collected and analyzed using XRD-6000 v. 4.1.
Form A bicifadine hydrochloride (207 mg) was charged to a small stainless steel cylinder. A stainless steel ball was added, the cylinder capped, and the unit shaken on a Retsch Mixer Mill (Type MM 200) at 5-minute intervals at a frequency of 30/s for a total of 20 minutes. The milled material was then removed and analyzed by XRPD.
Form B bicifadine hydrochloride (111 mg) was charged to a small stainless steel cylinder. […] The milled material was then removed and analyzed by XRPD.

[2] = Thermodynamic stability of polymorphic forms; details: form B compared with form A; hydrochloride
[3] = Solubility in organic solvents; details: room temperature; become soluble when heated
Description: However, they become soluble when heated. In accordance with this conversion, the polymorph form A crystals of bicifadine hydrochloride are mixed with an organic solvent, having a boiling point of at least 50° C. to form a slurry. In carrying out this conversion any conventional organic solvent having a boiling point of at least 50° C. can be utilized. The slurry is then heated to a temperature at which said slurry is a clear solution, and this solution is cooled to a temperature of at most about 35° C., preferably between about 0° C. to about 20° C. The cooled solution is maintained at a temperature of at most about 35° C. for a period of time sufficient to allow said polymorph B to form as a pure crystalline form free from the presence of the polymorph form A. If desired, cooling can be carried out with stirring. During cooling the mixture should be monitored to allow sufficient time for crystalline polymorph B to form from the mixture.

Row | Compound | polymorphic form after grinding (XRPD) [1] | thermodynamic stability of crystal form [2] | solubility in organic solvents [3]
1 | Cc1ccc(C23CNCC2C3)cc1 (racemic) [Form B bicifadine hydrochloride, (±)-1-(4-methylphenyl)-3-azabicyclo[3.1.0]-hexane hydrochloride] | remained form B | more thermodynamically stable | 
2 | Cc1ccc(C23CNCC2C3)cc1 (racemic) [Form A bicifadine hydrochloride, (±)-1-(4-methylphenyl)-3-azabicyclo[3.1.0]-hexane hydrochloride] | partial conversion to form B | not the most thermodynamically stable polymorphic form | poorly soluble
